What was measured:
Format in all cases: cell-based, Human
KCL-22 (BCR-ABL) = experiment: In vitro growth inhibition of KCL-22 tumor cells (MTT/CCK8); details: Homo sapiens, KCL-22; in vitro growth inhibition (or induction of apoptosis), cells cultured 3 to 5 days, MTT (CCK8); read-out: IC50 KCL-22 (BCR-ABL)
KATO III (FGFR2 amp) = experiment: In vitro growth inhibition of KATO III tumor cells (MTT/CCK8); details: Homo sapiens, KATO III; in vitro growth inhibition (or induction of apoptosis), cells cultured 3 to 5 days, MTT (CCK8); read-out: IC50 KATO III (FGFR2 amp)
Hep3B2 (FGFR3/4+++) = experiment: In vitro growth inhibition of Hep3B2 tumor cells (MTT/CCK8); details: Homo sapiens, Hep3B; in vitro growth inhibition (or induction of apoptosis), cells cultured 3 to 5 days, MTT (CCK8); read-out: IC50 Hep3B2 (FGFR3/4+++)
Kasumi-1 (KIT N822K) = experiment: In vitro growth inhibition of Kasumi-1 tumor cells (MTT/CCK8); details: Homo sapiens, Kasumi 1; in vitro growth inhibition (or induction of apoptosis), cells cultured 3 to 5 days, MTT (CCK8); read-out: IC50 Kasumi-1 (KIT N822K)
H1581 (FGFR1 amp) = experiment: In vitro growth inhibition of H1581 tumor cells (MTT/CCK8); details: Homo sapiens, NCI-H1581; in vitro growth inhibition (or induction of apoptosis), cells cultured 3 to 5 days, MTT (CCK8); read-out: IC50 H1581 (FGFR1 amp)
Karpas 299 (NPM-ALK) = experiment: In vitro growth inhibition of Karpas 299 tumor cells (MTT/CCK8); details: Homo sapiens, KARPAS-299; in vitro growth inhibition (or induction of apoptosis), cells cultured 3 to 5 days, MTT (CCK8); read-out: IC50 Karpas 299 (NPM-ALK)
MOLM-13 (FLT3-ITD) = experiment: In vitro growth inhibition of MOLM-13 tumor cells (MTT/CCK8); details: Homo sapiens, MOLM-13; in vitro growth inhibition (or induction of apoptosis), cells cultured 3 to 5 days, MTT (CCK8); read-out: IC50 MOLM-13 (FLT3-ITD)
H1703 (PDGFRa amp) = experiment: In vitro growth inhibition of H1703 tumor cells (MTT/CCK8); details: Homo sapiens, NCI-H1703; in vitro growth inhibition (or induction of apoptosis), cells cultured 3 to 5 days, MTT (CCK8); read-out: IC50 H1703 (PDGFRa amp)

SMILES	IC50 (KCL-22 (BCR-ABL)) [nM]	IC50 (KATO III (FGFR2 amp)) [nM]	IC50 (Hep3B2 (FGFR3/4+++)) [nM]	IC50 (Kasumi-1 (KIT N822K)) [nM]	IC50 (H1581 (FGFR1 amp)) [nM]	IC50 (Karpas 299 (NPM-ALK)) [nM]	IC50 (MOLM-13 (FLT3-ITD)) [nM]	IC50 (H1703 (PDGFRa amp)) [nM]
COc1cc2nccc(Nc3ccc(NC(=O)Nc4cc(C(C)(C)C)n[nH]4)cc3Cl)c2cc1C(N)=O [Compound 97, 4-{4-[3-(5-tert-butyl-2H-pyrazol-3-yl)-ureido]-2-chloro-phenylamino}-7-methoxy-quinolin-6-carboxamide]	122	117	456	> 1000	254	803	0.8	342
COc1cc2nccc(Nc3ccc(NC(=O)Nc4cc(C(C)(C)C)n[nH]4)cc3C)c2cc1C(N)=O [Compound 98, 4-{4-[3-(5-tert-butyl-2H-pyrazol-3-yl)-ureido]-2-methyl-phenylamino}-7-methoxy-quinolin-6-carboxamide]	> 1000	270	843	> 1000	433	> 1000	6	605
COc1cc2nccc(Nc3ccc(NC(=O)Nc4cc(C(C)(C)C)on4)cc3C)c2cc1C(N)=O [Compound 99, 4-{4-[3-(5-tert-butyl-isoxazol-3-yl)-ureido]-2-methyl-phenylamino}-7-methoxy-quinolin-6-carboxamide]	264	37.8	862	355	294	> 1000	3.41	128
COc1cc2nccc(Nc3ccc(NC(=O)Nc4cc(C(C)(C)C)on4)cc3Cl)c2cc1C(N)=O [Compound 100, 4-{4-[3-(5-tert-butyl-isoxazol-3-yl)-ureido]-2-chloro-phenylamino}-7-methoxy-quinolin-6-carboxamide]	694	49.7	> 1000	> 1000	271	838	1.01	202
COc1cc2nccc(Oc3ccc(NC(=O)Nc4cc(C(C)(C)C)n[nH]4)cn3)c2cc1NC(C)=O [Compound 104, N-(4-{5-[3-(5-tert-butyl-2H-pyrazol-3-yl)-ureido]-pyridin-2-yloxy}-7-methoxy-quinolin-6-yl)-acetamide]	> 1000	40.1	526	> 1000	160	768	1.17	163
COc1cc2nccc(Oc3ccc(NC(=O)Nc4cc(C(C)(C)C)n[nH]4)cc3C(C)C)c2cc1C(N)=O [Compound 107, 4-{4-[3-(5-tert-butyl-2H-pyrazol-3-yl)-ureido]-2-isopropyl-phenoxy}-7-methoxy-quinolin-6-carboxamide]	589	345	> 1000	> 1000	341	759	50.4	263
CC(C)(C)c1cc(NC(=O)Nc2ccc(Oc3ccnc4c(F)cccc34)cc2Cl)no1 [Compound 113, 1-(5-tert-butyl-isoxazol-3-yl)-3-[2-chloro-4-(8-fluoro-quinolin-4-yloxy)-phenyl]-urea]	> 1000	498	> 1000	> 1000	> 1000	> 1000	> 500	568
CC(C)(C)c1cc(NC(=O)Nc2ccc(Oc3ccnc4c(C(F)(F)F)cccc34)cc2Cl)no1 [Compound 114, 1-(5-tert-butyl-isoxazol-3-yl)-3-[2-chloro-4-(8-trifluoromethyl-quinolin-4-yloxy)-phenyl]-urea]	> 5000	> 1000	> 1000	> 1000	> 1000	> 1000	> 1000	> 1000

Compounds with a lower IC50 (KCL-22 (BCR-ABL)), results first:

IC50 (KCL-22 (BCR-ABL)) [nM]	IC50 (KATO III (FGFR2 amp)) [nM]	IC50 (Hep3B2 (FGFR3/4+++)) [nM]	IC50 (Kasumi-1 (KIT N822K)) [nM]	IC50 (H1581 (FGFR1 amp)) [nM]	IC50 (Karpas 299 (NPM-ALK)) [nM]	IC50 (MOLM-13 (FLT3-ITD)) [nM]	IC50 (H1703 (PDGFRa amp)) [nM]	SMILES
10.2	1.72	36.6	31.4	38	> 1000	7.23	45	CC(C)(C)c1cc(NC(=O)Nc2ccc(Oc3ccnc4cc(OCCN5CCCCC5)c(C(N)=O)cc34)c(Cl)c2Cl)[nH]n1 [Compound 96, 4-{4-[3-(5-tert-butyl-2H-pyrazol-3-yl)-ureido]-2,3-dichloro-phenoxy}-7-(2-piperidin-1-yl-ethoxy)-quinolin-6-carboxamide]
11	2.34	110	24.1	9.56	64.3	0.08	61.3	COc1cc2nccc(Oc3ccc(NC(=O)Nc4cc(C(C)(C)C)n[nH]4)cc3Cl)c2cc1NC(C)=O [Compound 101, N-(4-{4-[3-(5-tert-butyl-2H-pyrazol-3-yl)-ureido]-2-chloro-phenoxy}-7-methoxy-quinolin-6-yl)-acetamide]
12.1	4.17	191	14.6	24.2	350	0.15	86.7	COc1cc2nccc(Oc3ccc(NC(=O)Nc4cc(C(C)(C)C)n[nH]4)cc3C)c2cc1NC(C)=O [Compound 103, N-(4-{4-[3-(5-tert-butyl-2H-pyrazol-3-yl)-ureido]-2-methyl-phenoxy}-7-methoxy-quinolin-6-yl)-acetamide]
45.3	4.07	83.4	57.3	39.6	187	0.59	71.9	C=CC(=O)Nc1cc2c(Oc3ccc(NC(=O)Nc4cc(C(C)(C)C)n[nH]4)cc3Cl)ccnc2cc1OC [Compound 105, N-(4-{4-[3-(5-tert-butyl-2H-pyrazol-3-yl)-ureido]-2-chloro-phenoxy}-7-methoxy-quinolin-6-yl)-acrylamide]
115	46.7	> 1000	176	168	380	9.37	120	CCc1cc(NC(=O)Nc2cc(C(C)(C)C)n[nH]2)ccc1Oc1ccnc2cc(OC)c(C(N)=O)cc12 [Compound 106, 4-{4-[3-(5-tert-butyl-2H-pyrazol-3-yl)-ureido]-2-ethyl-phenoxy}-7-methoxy-quinolin-6-carboxamide]
2.48	1.55	98.7	0.471	17.7	559	18.7	108	COc1cc2nccc(Oc3ccc(NC(=O)Nc4cc(C(C)(C)C)n[nH]4)c(C)c3C)c2cc1C(N)=O [Compound 109, 4-{4-[3-(5-tert-butyl-2H-pyrazol-3-yl)-ureido]-2,3-dimethyl-phenoxy}-7-methoxy-quinolin-6-carboxamide]
3.21	2.98	83.8	0.41	8.36	508	19.7	46.1	COc1cc2nccc(Oc3ccc(NC(=O)Nc4cc(C(C)(C)C)nn4C)c(C)c3C)c2cc1C(N)=O [Compound 110, 4-{4-[3-(5-tert-butyl-2-methyl-2H-pyrazol-3-yl)-ureido]-2,3-dimethyl-phenoxy}-7-methoxy-quinolin-6-carboxamide]

— patent US10800741B2 (ANCUREALL PHARMACEUTICAL (SHANGHAI) CO., LTD., priority 2017, dated 2020)
